Data published in ChEMBL document CHEMBL5150072, “Discovery and Crystallographic Studies of Nonpeptidic Piperazine Derivatives as Covalent SARS-CoV-2 Main Protease Inhibitors” (J Med Chem, 2022).
Activity calls are given as the source filed them. The rule behind the calls is not given here.

Columns and labels:
[1] = biological target: Replicase polyprotein 1ab (Severe acute respiratory syndrome coronavirus 2) (UniProt P0DTD1); assay: Potency index, ratio of IC50 for MCULE-5948770040 to IC50 for test compound for inhibition of SARS-COV-2 main protease
Cathepsin K = biological target: T1, Cathepsin K (Homo sapiens, UniProt P43235); assay: Inhibition of human cathepsin K using Ac-LR-AFC as substrate by […] assay; assay type: toxicity
T1 sequence (P43235 whole entry): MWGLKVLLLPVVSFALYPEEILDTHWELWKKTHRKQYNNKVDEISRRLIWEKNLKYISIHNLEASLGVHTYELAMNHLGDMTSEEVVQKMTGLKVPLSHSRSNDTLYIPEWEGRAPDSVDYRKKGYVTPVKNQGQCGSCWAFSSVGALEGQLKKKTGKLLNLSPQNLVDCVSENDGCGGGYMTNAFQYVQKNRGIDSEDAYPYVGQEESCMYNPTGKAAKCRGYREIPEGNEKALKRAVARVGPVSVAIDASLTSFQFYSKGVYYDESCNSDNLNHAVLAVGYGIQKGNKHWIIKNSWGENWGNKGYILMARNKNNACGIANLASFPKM

[2] = biological target: Replicase polyprotein 1ab (Severe acute respiratory syndrome coronavirus 2) (UniProt P0DTD1); assay: Covalent inhibition of SARS-CoV-2 main protease assessed as protein-compound adduct formation incubated for 30 mins by MALDI-TOF analysis
SARS-CoV-2 [3] = assay: Antiviral activity against SARS-CoV-2 infected in Vero E6 cells preincubated for 1 hr followed by methylcellulose addition and measured after 25 to 26 hrs by EliSpot reader based analysis; assay type: functional, organism-based; details: Severe acute respiratory syndrome coronavirus 2, Vero C1008
[4] = biological target: T2, Replicase polyprotein 1ab (Severe acute respiratory syndrome coronavirus 2, UniProt P0DTD1); assay: Inhibition of SARS-CoV-2 main protease using MCA-AVLQSGFR-Lys(Dnp)-Lys-NH2 as substrate preincubated for 30 mins followed by substrate addition and measured every 10 sec for 10 mins by FRET assay
Cathepsin F = biological target: T3, Cathepsin F (Homo sapiens, UniProt Q9UBX1); assay: Inhibition of human cathepsin F using Z-Phe-Arg-AMC as substrate by […] assay; assay type: toxicity
T3 sequence (Q9UBX1 whole entry): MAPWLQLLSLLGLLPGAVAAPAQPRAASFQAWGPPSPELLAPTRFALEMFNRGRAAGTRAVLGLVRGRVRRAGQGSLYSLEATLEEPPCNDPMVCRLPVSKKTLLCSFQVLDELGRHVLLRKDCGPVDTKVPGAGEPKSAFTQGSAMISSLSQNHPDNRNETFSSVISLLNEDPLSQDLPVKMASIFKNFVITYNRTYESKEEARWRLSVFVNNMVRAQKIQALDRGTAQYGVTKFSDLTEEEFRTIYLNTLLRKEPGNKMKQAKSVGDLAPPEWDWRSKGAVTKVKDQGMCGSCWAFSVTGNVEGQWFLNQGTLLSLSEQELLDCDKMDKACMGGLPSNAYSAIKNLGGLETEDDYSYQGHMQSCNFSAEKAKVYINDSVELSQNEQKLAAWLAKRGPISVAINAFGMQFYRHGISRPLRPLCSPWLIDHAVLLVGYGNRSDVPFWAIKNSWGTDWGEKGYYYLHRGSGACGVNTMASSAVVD

Cathepsin B = Cathepsin B (Homo sapiens, UniProt P07858); assay: Inhibition of human cathepsin B using Z-Leu-Arg-AMC as substrate by […] assay; assay type: toxicity
[5] = Cytotoxicity against african green monkey Vero E6 cells assessed as reduction in cell viability after 26 hrs by MTS assay; assay type: toxicity, cell-based, Vero C1008; details: chlorocebus sabaeus
Procathepsin L = Procathepsin L (Homo sapiens, UniProt P07711); assay: Inhibition of human cathepsin L using Z-Leu-Arg-AMC as substrate by […] assay; assay type: toxicity
[6] = biological target: Replicase polyprotein 1ab (Severe acute respiratory syndrome coronavirus 2) (UniProt P0DTD1); assay: Irreversible inhibition of SARS-CoV-2 main protease assessed as ratio of Kinact/Ki incubated for 60 mins by MS analysis
Caspase-3 = biological target: T4, Caspase-3 (Homo sapiens, UniProt P42574); assay: Inhibition of human caspase 3 using Ac-Asp-Glu-Val-Asp-pNA as substrate by […] assay; assay type: toxicity
T4 sequence (P42574 whole entry): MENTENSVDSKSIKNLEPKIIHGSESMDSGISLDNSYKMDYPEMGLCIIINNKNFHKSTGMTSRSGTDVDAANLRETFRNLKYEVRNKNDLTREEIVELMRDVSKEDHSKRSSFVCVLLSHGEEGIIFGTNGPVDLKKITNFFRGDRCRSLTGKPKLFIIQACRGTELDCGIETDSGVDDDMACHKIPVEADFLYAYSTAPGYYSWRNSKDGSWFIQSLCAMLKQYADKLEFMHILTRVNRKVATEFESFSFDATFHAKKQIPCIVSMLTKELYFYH

SARS-CoV-2 [7] = assay: Antiviral activity against SARS-CoV-2 infected in Vero E6 cells; assay type: functional, organism-based; details: Severe acute respiratory syndrome coronavirus 2, Vero C1008
[8] = biological target: T2, Replicase polyprotein 1ab; assay: Inhibition of SARS-CoV-2 main protease
[9] = biological target: T2, Replicase polyprotein 1ab; assay: Inhibition of SARS-CoV-2 main protease incubated for 30 mins by FRET based assay
[10] = Cytotoxicity against african green monkey Vero E6 cells; assay type: toxicity, cell-based, Vero C1008; details: chlorocebus sabaeus
SARS-CoV-2 [11] = assay: Antiviral activity against SARS-CoV-2 infected in VeroE6 cells measured after 24 hrs post infection by plaque assay; assay type: functional, organism-based; details: Severe acute respiratory syndrome coronavirus 2, Vero C1008, 24 h
SARS-CoV-2 [12] = assay: Antiviral activity against SARS-CoV-2 infected in Vero E6 cells assessed as reduction in virus induced cytopathic effect incubated for 3 days; assay type: functional, organism-based; details: Severe acute respiratory syndrome coronavirus 2, Vero C1008, 72 h

Sequence of Procathepsin L (P07711 whole entry): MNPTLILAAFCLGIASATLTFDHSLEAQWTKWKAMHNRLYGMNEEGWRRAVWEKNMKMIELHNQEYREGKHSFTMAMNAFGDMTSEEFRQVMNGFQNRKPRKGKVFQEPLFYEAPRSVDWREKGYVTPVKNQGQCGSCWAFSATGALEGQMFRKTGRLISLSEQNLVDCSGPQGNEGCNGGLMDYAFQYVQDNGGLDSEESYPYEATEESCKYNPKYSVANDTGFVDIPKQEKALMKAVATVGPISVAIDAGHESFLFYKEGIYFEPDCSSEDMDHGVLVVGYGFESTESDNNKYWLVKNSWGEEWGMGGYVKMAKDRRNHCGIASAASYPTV

With `O=C(NCc1cccs1)[C@@H]1CN(C(=O)CCl)CCN1c1ccc(Cl)c(Cl)c1` the Ratio IC50 [1] was 28, the IC50 (Cathepsin K) was > 30 µM and the inhibition [2] was “Active”. For the same compound, the EC50 (SARS-CoV-2 [3]) was 2640 nM, the IC50 [4] was 180 nM and the IC50 (Cathepsin F) was > 30 µM. For the same compound, the IC50 (Cathepsin B) was > 30 µM, the CC50 at 26 h [5] was 12.5 µM and the IC50 (Procathepsin L) was > 30 µM. For the same compound, the Ratio [6] was 21500 M⁻¹ s⁻¹ and the IC50 (Caspase-3) was > 30 µM.
`[2H][C@](C(=O)N[C@@H](C)c1ccc(F)cc1)(c1cccnc1)N(C(=O)C(C)=O)c1ccc2c(c1)oc1ccccc12` gave an EC50 (SARS-CoV-2 [7]) of 900 nM and an IC50 [8] of 8 nM.
In the case of `CCC(CC)COC(=O)[C@H](C)N[P@](=O)(OC[C@H]1O[C@@](C#N)(c2ccc3c(N)ncnn23)[C@H](O)[C@@H]1O)Oc1ccccc1`, the EC50 (SARS-CoV-2 [3]) is reported as 2270 nM and the CC50 at 26 h [5] is reported as > 100 µM.
With `CC(C)(C)NC(=O)C(c1cccnc1)N(C(=O)c1ccco1)c1ccc(C(C)(C)C)cc1` (stereo unspecified) the EC50 (SARS-CoV-2 [7]) was > 20000 nM.
For `C[C@H](NC(=O)[C@@H](c1cccnc1)N(C(=O)C(Cl)Cl)c1ccc(-c2ccccc2)cc1)c1ccccc1`, the IC50 [9] was 670 nM, the CC50 [10] was 33.1 µM and the EC50 (SARS-CoV-2 [7]) was 670 nM.
`C#CC(=O)N1CCN(c2ccc(Cl)c(Cl)c2)[C@H](C(=O)NCc2cccs2)C1` gave an EC50 (SARS-CoV-2 [3]) of 1370 nM, an IC50 [4] of 2800 nM and a CC50 at 26 h [5] of 11.9 µM.
Work on `O=C[C@H](C[C@@H]1CCNC1=O)NC(=O)[C@H](CC1CCCCC1)NC(=O)c1cc2ccccc2[nH]1` yielded an EC50 (SARS-CoV-2 [11]) of 420 nM.
For `CC(C)(C)[C@H](NC(=O)C(F)(F)F)C(=O)N1C[C@H]2[C@@H]([C@H]1C(=O)N[C@H](C#N)C[C@@H]1CCNC1=O)C2(C)C`, the CC50 at 26 h [5] was > 100 µM.
In the case of `O=c1c2ccccc2[se]n1-c1ccccc1` [EBSELEN], the CC50 [10] is reported as > 20 µM.
Compound `COc1cccc2[nH]c(C(=O)N[C@@H](CC(C)C)C(=O)N[C@@H](C[C@@H]3CCNC3=O)C(=O)CO)cc12` [PF-00835231] has an EC50 (SARS-CoV-2 [12]) of 230 nM.
In the case of `O=C(NCc1cccs1)[C@@H]1CN(C(=O)CBr)CCN1c1ccc(Cl)c(Cl)c1`, the Ratio IC50 [1] is reported as 16, the EC50 (SARS-CoV-2 [3]) is reported as 4240 nM and the IC50 [4] is reported as 310 nM. It also gave a CC50 at 26 h [5] of 6.5 µM.
In the case of `O=C(NCc1cccs1)[C@@H]1CN(C(=O)c2cccnc2)CCN1c1ccc(Cl)c(Cl)c1`, the EC50 (SARS-CoV-2 [3]) is reported as 400 nM, the IC50 [4] is reported as 400 nM and the CC50 at 26 h [5] is reported as > 100 µM.
In the case of `O=C(NCc1cccs1)[C@@H]1CN(C(=O)C(F)(F)S(=O)(=O)F)CCN1c1ccc(Cl)c(Cl)c1`, the EC50 (SARS-CoV-2 [3]) is reported as 183000 nM, the IC50 [4] is reported as 1600 nM and the CC50 at 26 h [5] is reported as > 100 µM.
